# Literature values in US20090305955A1, “Cyclopeptide with Anti-Cancer Activity Derived from Collagen Type IV” (priority 2006, published 2009).
# Legend:
# [1] = test system: various cancer cell lines; settings: Han J et al; Shahan S et al; cited from earlier work
# [2] = target: T1, αVβ3 integrin-CD47 protein complex (Homo sapiens, UniProt P05106); settings: Shahan T A et al; cited from earlier work
# T1 construct: αVβ3 integrin-CD47 protein complex present on the surface of melanoma cells
# [3] = test system: melanoma or fibrosarcoma cells; settings: Pasco S et al, 2000a; cited from earlier work
# angiogenesis = settings: Pasco S et al, 2005; cited from earlier work
# [4] = test system: murine melanoma B16F1 cells; settings: cells pre-incubated with peptide, injected into C57BL6 syngenic mice; Floquet et al; cited from earlier work
# T1 sequence (P05106 27-788): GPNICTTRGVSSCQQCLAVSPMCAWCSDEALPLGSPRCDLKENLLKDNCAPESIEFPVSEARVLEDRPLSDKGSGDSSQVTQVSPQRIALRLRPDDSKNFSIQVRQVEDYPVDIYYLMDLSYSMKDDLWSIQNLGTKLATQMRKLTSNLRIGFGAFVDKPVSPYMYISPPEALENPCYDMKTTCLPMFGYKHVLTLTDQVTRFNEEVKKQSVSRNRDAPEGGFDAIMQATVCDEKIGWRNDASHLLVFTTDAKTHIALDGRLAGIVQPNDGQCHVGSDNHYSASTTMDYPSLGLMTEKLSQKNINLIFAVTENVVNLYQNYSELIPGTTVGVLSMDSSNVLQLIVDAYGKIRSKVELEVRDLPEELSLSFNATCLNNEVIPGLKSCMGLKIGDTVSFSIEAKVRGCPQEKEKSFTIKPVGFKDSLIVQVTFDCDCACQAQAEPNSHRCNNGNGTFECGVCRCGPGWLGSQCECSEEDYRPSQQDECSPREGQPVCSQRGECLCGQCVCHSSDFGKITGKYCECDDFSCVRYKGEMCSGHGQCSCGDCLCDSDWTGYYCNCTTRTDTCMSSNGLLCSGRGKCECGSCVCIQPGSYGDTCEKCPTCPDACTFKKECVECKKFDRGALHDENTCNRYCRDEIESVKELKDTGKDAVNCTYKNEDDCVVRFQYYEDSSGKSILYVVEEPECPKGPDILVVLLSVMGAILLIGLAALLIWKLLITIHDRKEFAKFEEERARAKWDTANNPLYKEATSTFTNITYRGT
# T1 sequence (P06756 31-889 partner limits assumed): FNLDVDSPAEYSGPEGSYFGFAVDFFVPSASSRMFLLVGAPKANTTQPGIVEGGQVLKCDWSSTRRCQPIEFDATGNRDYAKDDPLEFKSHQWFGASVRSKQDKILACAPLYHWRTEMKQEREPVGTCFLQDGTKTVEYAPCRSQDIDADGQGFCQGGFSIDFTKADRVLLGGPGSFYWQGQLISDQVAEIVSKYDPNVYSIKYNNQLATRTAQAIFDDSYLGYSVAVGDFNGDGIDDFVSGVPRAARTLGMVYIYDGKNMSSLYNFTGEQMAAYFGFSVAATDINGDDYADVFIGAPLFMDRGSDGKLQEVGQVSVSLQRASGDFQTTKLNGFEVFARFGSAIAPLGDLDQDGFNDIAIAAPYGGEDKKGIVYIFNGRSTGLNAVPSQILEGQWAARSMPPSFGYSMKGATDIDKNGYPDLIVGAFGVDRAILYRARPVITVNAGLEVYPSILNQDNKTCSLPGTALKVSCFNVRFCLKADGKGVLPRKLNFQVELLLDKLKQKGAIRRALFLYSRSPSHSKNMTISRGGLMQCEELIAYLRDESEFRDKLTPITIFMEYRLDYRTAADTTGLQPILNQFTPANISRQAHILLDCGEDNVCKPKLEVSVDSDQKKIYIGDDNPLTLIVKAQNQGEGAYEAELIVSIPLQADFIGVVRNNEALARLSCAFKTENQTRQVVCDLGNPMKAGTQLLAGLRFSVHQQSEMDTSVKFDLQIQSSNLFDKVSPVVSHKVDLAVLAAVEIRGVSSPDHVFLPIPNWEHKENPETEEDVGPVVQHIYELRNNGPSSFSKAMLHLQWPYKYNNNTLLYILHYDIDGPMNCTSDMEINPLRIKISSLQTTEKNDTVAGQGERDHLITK
# T1 sequence (P06756 891-1048 partner limits assumed): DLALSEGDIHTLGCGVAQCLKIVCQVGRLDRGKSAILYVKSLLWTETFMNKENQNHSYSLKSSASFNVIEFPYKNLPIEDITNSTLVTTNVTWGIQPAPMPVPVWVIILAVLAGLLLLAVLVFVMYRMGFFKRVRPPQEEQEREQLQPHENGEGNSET
# T1 sequence (Q08722 19-323 partner): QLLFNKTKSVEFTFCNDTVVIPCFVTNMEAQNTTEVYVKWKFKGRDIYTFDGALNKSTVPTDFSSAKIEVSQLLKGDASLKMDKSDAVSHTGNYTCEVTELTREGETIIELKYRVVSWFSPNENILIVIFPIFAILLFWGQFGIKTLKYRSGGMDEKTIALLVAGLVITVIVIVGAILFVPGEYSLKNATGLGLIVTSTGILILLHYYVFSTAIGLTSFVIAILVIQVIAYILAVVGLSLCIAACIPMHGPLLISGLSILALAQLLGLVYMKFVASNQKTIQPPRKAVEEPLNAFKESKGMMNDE
sequence,measurement,setting,value
"CNYYSNSYSFWLASLNPER (Chemically synthesized NC1 alpha3 (IV) 185-203) [[NC1 α3(IV) 185-203], peptide constituted by amino acids 185 to 203 of the NC1 α3(IV) domain of type IV collagen]",proliferation of various cancer cell lines,[1],may inhibit the proliferation
same,binding to the αVβ3 integrin-CD47 protein complex on the surface of melanoma cells,[2],binds
same,migration of melanoma or fibrosarcoma cells in vitro,[3],inhibit the migration
same,angiogenesis in vitro and in vivo,angiogenesis,capable of inhibiting angiogenesis
same,tumoral growth of murine melanoma B16F1 cells,[4],inhibits the tumoral growth
